According to US20120053053A1, “PYRIMIDINE DERIVATIVES AND THEIR USE AS HERBICIDES” (SYNGENTA CROP PROTECTION, LLC, priority 2009, published 2012):

Experiments:
Format in all cases: in vivo
[1] = test system: Alopecurus myosuroides (ALOMY); experiment: Post-emergence biological efficacy (percentage damage); conditions: Alopecurus myosuroides, 312 h, evaluated after 13 days, 100=total damage, 0=no damage; for pest or weed control at 1000 g/ha: dose 1,000 g/ha
Procedure: (§1) Seeds of Alopecurus myosuroides (ALOMY), Setaria faberi (SETFA), Echinochloa crus-galli (ECHCG), Solanum nigrum (SOLNI), Amaranthus retoflexus (AMARE) and Ipomea hederaceae (IPOHE) were sown in standard soil in pots. After cultivation for 8 days under controlled conditions in a glasshouse (at 24/16° C., day/night; 14 hours light; 65% humidity), the plants were sprayed with an aqueous spray solution derived from the formulation of the technical active ingredient in acetone/water (50:50) solution containing 0.5% Tween 20 (polyoxyethylene sorbitan monolaurate, CAS RN 9005-64-5) to give a final dose of 250 or 1000 g/ha of test compound. The test plants were then grown on under controlled conditions in a glasshouse (at 24/16° C., day/night; 14 hours light; 65% humidity) and watered twice daily. After 13 days the test was evaluated (100=total damage to plant; 0=no damage to plant).

[2] = test system: Amaranthus retoflexus (AMARE); experiment: as above; conditions: Amaranthus retroflexus, 312 h, evaluated after 13 days, 100=total damage, 0=no damage; for pest or weed control at 1000 g/ha: dose 1,000 g/ha
Procedure: as §1

[3] = test system: Setaria faberi (SETFA); experiment: as above; conditions: Setaria faberi, 312 h, evaluated after 13 days, 100=total damage, 0=no damage; for pest or weed control at 1000 g/ha: dose 1,000 g/ha
Procedure: as §1

[4] = test system: Solanum nigrum (SOLNI); experiment: as above; conditions: Solanum nigrum, 312 h, evaluated after 13 days, 100=total damage, 0=no damage; for pest or weed control at 1000 g/ha: dose 1,000 g/ha
Procedure: as §1

[5] = test system: Ipomea hederaceae (IPOHE); experiment: as above; conditions: Ipomoea hederacea, 312 h, evaluated after 13 days, 100=total damage, 0=no damage; for pest or weed control at 1000 g/ha: dose 1,000 g/ha
Procedure: as §1

[6] = test system: Echinochloa crus-galli (ECHCG); experiment: as above; conditions: Echinochloa crus-galli, 312 h, evaluated after 13 days, 100=total damage, 0=no damage; for pest or weed control at 1000 g/ha: dose 1,000 g/ha
Procedure: as §1

[7] = test system: Alopecurus myosuroides (ALOMY); experiment: Pre-emergence biological efficacy (percentage damage); conditions: Alopecurus myosuroides, 312 h, evaluated after 13 days, 100=total damage, 0=no damage; for pest or weed control at 1000 g/ha: dose 1,000 g/ha
Procedure: (§2) Seeds of Alopecurus myosuroides (ALOMY), Setaria faberi (SETFA), Echinochloa crus-galli (ECHCG), Solanum nigrum (SOLNI), Amaranthus retoflexus (AMARE) and Ipomea hederaceae (IPOHE) were sown in standard soil in pots. After cultivation for one day under controlled conditions in a glasshouse (at 24/16° C., day/night; 14 hours light; 65% humidity), the plants were sprayed with an aqueous spray solution derived from the formulation of the technical active ingredient in acetone/water (50:50) solution containing 0.5% Tween 20 (polyoxyethylene sorbitan monolaurate, CAS RN 9005-64-5) to give a final dose of 250 or 1000 g/ha of test compound. The test plants were then grown under controlled conditions in the glasshouse (at 24/16° C., day/night; 14 hours light; 65% humidity) and watered twice daily. After 13 days the test was evaluated (100=total damage to plant; 0=no damage to plant).

[8] = test system: Amaranthus retoflexus (AMARE); experiment: as above; conditions: Amaranthus retroflexus, 312 h, evaluated after 13 days, 100=total damage, 0=no damage; for pest or weed control at 1000 g/ha: dose 1,000 g/ha
Procedure: as §2

[9] = test system: Setaria faberi (SETFA); experiment: as above; conditions: Setaria faberi, 312 h, evaluated after 13 days, 100=total damage, 0=no damage; for pest or weed control at 1000 g/ha: dose 1,000 g/ha
Procedure: as §2

[10] = test system: Solanum nigrum (SOLNI); experiment: as above; conditions: Solanum nigrum, 312 h, evaluated after 13 days, 100=total damage, 0=no damage; for pest or weed control at 1000 g/ha: dose 1,000 g/ha
Procedure: as §2

[11] = test system: Ipomea hederaceae (IPOHE); experiment: as above; conditions: Ipomoea hederacea, 312 h, evaluated after 13 days, 100=total damage, 0=no damage; for pest or weed control at 1000 g/ha: dose 1,000 g/ha
Procedure: as §2

[12] = test system: Echinochloa crus-galli (ECHCG); experiment: as above; conditions: Echinochloa crus-galli, 312 h, evaluated after 13 days, 100=total damage, 0=no damage; for pest or weed control at 1000 g/ha: dose 1,000 g/ha
Procedure: as §2

Compound `COC(=O)COc1nc(C2CC2)nc(Cl)c1C` [Compound 2-376, 4-chloro-2-cyclopropyl-6-methoxycarbonylmethoxy-5-methylpyrimidine] has a pest or weed control at 1000 g/ha [1] of 0%, a pest or weed control at 1000 g/ha [2] of 20% and a pest or weed control at 1000 g/ha [3] of 20%. For the same compound, the pest or weed control at 1000 g/ha [4] was 30%, the pest or weed control at 1000 g/ha [5] was 50% and the pest or weed control at 1000 g/ha [6] was 0%. The pest or weed control at 1000 g/ha [7] was 0%, the pest or weed control at 1000 g/ha [8] was 30% and the pest or weed control at 1000 g/ha [9] was 0%. It also gave a pest or weed control at 1000 g/ha [10] of 0%, a pest or weed control at 1000 g/ha [11] of 0% and a pest or weed control at 1000 g/ha [12] of 0%.

For `COC(=O)c1nc(C2CC2)nc(N)c1C#C[Si](C)(C)C` [Compound 2-78, 4-amino-2-cyclopropyl-6-methoxycarbonyl-5-(trimethylsilylethynyl)-pyrimidine], the pest or weed control at 1000 g/ha [1] was 30%, the pest or weed control at 1000 g/ha [2] was 100% and the pest or weed control at 1000 g/ha [3] was 60%. The pest or weed control at 1000 g/ha [4] was 100%, the pest or weed control at 1000 g/ha [5] was 100% and the pest or weed control at 1000 g/ha [6] was 60%. It also gave a pest or weed control at 1000 g/ha [7] of 20%, a pest or weed control at 1000 g/ha [8] of 90% and a pest or weed control at 1000 g/ha [9] of 10%. For the same compound, the pest or weed control at 1000 g/ha [10] was 90%, the pest or weed control at 1000 g/ha [11] was 100% and the pest or weed control at 1000 g/ha [12] was 30%.

`CC(O)c1c(N)nc(-c2ccc(C(F)(F)F)cc2)nc1CO` (stereo not drawn) [Compound 31-372, 4-amino-5-(1-hydroxyethyl)-6-hydroxymethyl-2-(4-trifluoromethylphenyl)-pyrimidine] was tested, and the pest or weed control at 1000 g/ha [1] was 10%, the pest or weed control at 1000 g/ha [2] was 20% and the pest or weed control at 1000 g/ha [3] was 30%. For the same compound, the pest or weed control at 1000 g/ha [4] was 30%, the pest or weed control at 1000 g/ha [5] was 30% and the pest or weed control at 1000 g/ha [6] was 10%. It also gave a pest or weed control at 1000 g/ha [7] of 0%, a pest or weed control at 1000 g/ha [8] of 0% and a pest or weed control at 1000 g/ha [9] of 0%. It also gave a pest or weed control at 1000 g/ha [10] of 0%, a pest or weed control at 1000 g/ha [11] of 0% and a pest or weed control at 1000 g/ha [12] of 0%.

`C=Cc1c(N)nc(-c2ccc(Cl)c(N(C)C)c2F)nc1C(=O)OCCCC` [Compound 33-391] was tested, and the pest or weed control at 1000 g/ha [1] was 70%, the pest or weed control at 1000 g/ha [2] was 100% and the pest or weed control at 1000 g/ha [3] was 90%. For the same compound, the pest or weed control at 1000 g/ha [4] was 80%, the pest or weed control at 1000 g/ha [5] was 80% and the pest or weed control at 1000 g/ha [6] was 90%. It also gave a pest or weed control at 1000 g/ha [7] of 70%, a pest or weed control at 1000 g/ha [8] of 100% and a pest or weed control at 1000 g/ha [9] of 90%. The pest or weed control at 1000 g/ha [10] was 100%, the pest or weed control at 1000 g/ha [11] was 20% and the pest or weed control at 1000 g/ha [12] was 100%.

Work on `C=C(OCC)c1c(N)nc(-c2ccc(Cl)c(OC)c2F)nc1C(=O)OC` [Compound 27-67] yielded a pest or weed control at 1000 g/ha [1] of 0%, a pest or weed control at 1000 g/ha [2] of 40% and a pest or weed control at 1000 g/ha [3] of 10%. It also gave a pest or weed control at 1000 g/ha [4] of 80%, a pest or weed control at 1000 g/ha [5] of 60% and a pest or weed control at 1000 g/ha [6] of 10%. For the same compound, the pest or weed control at 1000 g/ha [7] was 20%, the pest or weed control at 1000 g/ha [8] was 30% and the pest or weed control at 1000 g/ha [9] was 10%. It also gave a pest or weed control at 1000 g/ha [10] of 100%, a pest or weed control at 1000 g/ha [11] of 40% and a pest or weed control at 1000 g/ha [12] of 20%.

`COC(=O)c1nc(C2CC2)nc(N)c1C#CC(C)(C)C` [Compound 2-77, 4-Amino-2-cyclopropyl-5-(3,3-dimethylbut-1-ynyl)-6-methoxycarbonyl-pyrimidine] was tested, and the pest or weed control at 250 g/ha ([1]; dose 250 g/ha) was 0%, the pest or weed control at 250 g/ha ([2]; dose 250 g/ha) was 30% and the pest or weed control at 250 g/ha ([3]; dose 250 g/ha) was 0%. For the same compound, the pest or weed control at 250 g/ha ([4]; dose 250 g/ha) was 40%, the pest or weed control at 250 g/ha ([5]; dose 250 g/ha) was 70% and the pest or weed control at 250 g/ha ([6]; dose 250 g/ha) was 0%. It also gave a pest or weed control at 250 g/ha ([7]; dose 250 g/ha) of 0%, a pest or weed control at 250 g/ha ([8]; dose 250 g/ha) of 0% and a pest or weed control at 250 g/ha ([9]; dose 250 g/ha) of 0%. For the same compound, the pest or weed control at 250 g/ha ([10]; dose 250 g/ha) was 0%, the pest or weed control at 250 g/ha ([11]; dose 250 g/ha) was 0% and the pest or weed control at 250 g/ha ([12]; dose 250 g/ha) was 0%.
